Measured values from ChEMBL document CHEMBL5113515, “The Discovery of GSK3640254, a Next-Generation Inhibitor of HIV-1 Maturation” (J Med Chem, 2022).

Legend:
[1] = system: Human immunodeficiency virus 1; assay: Antiviral activity against HIV1 NL (4 to 3) harbouring V362I/deltaV370 mutant transfected in human HEK293T cells by dual-luciferase reporter assay; assay type: functional, organism-based; conditions: Human immunodeficiency virus 1, HEK-293T
[2] = biological target: CYP3A4 (Homo sapiens, UniProt P08684); assay: Induction of CYP3A4 in human hepatocyte; assay type: ADME, cell-based; conditions: hepatocytes
Chain of CYP3A4 (P08684 whole entry): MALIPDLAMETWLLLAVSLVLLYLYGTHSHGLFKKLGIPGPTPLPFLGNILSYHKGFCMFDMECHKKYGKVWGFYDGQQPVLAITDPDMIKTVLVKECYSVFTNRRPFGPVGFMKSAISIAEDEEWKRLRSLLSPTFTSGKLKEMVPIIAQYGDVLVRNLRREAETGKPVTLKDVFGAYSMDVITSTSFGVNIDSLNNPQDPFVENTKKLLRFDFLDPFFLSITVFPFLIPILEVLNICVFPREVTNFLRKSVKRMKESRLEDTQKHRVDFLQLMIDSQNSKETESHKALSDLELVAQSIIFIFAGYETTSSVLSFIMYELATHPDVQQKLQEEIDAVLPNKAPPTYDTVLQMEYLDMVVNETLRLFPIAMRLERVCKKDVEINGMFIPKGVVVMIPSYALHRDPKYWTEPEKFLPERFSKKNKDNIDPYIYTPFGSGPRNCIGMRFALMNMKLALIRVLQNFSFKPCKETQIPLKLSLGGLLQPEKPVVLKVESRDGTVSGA

[3] = biological target: T1, UDP-glucuronosyltransferase 1A1 (Homo sapiens, UniProt P22309); assay: Inhibition of UGT1A1(unknown origin)
T1 sequence (P22309 whole entry): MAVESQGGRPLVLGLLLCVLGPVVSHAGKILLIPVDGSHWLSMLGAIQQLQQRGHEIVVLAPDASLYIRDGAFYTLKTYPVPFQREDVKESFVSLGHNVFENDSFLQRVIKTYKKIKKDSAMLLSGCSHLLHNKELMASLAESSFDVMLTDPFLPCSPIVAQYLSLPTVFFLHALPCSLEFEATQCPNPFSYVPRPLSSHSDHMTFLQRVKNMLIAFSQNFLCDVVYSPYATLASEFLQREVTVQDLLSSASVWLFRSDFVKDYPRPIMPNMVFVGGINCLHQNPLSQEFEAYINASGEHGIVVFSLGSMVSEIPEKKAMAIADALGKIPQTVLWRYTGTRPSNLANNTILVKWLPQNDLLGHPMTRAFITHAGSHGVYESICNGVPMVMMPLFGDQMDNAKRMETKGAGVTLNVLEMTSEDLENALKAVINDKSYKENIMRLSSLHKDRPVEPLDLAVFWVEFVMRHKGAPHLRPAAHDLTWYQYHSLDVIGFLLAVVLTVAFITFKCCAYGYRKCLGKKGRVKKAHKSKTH

[4] = Drug concentration in overnight fasted cynomolgus monkey plasma at 2 mg/kg, po or 1 mg/kg, iv measured after 24 hrs; assay type: ADME, organism-based, Macaca fascicularis
[5] = system: Human immunodeficiency virus 1; assay: Antiviral activity against HIV1 wild type subtype C NL (4 to 3) transfected in human HEK293T cells by dual-luciferase reporter assay; assay type: functional, organism-based; conditions: Human immunodeficiency virus 1, HEK-293T
[6] = Drug concentration in overnight fasted Sprague-Dawley rat plasma at 5 mg/kg, po or 1 mg/kg, iv measured after 24 hrs; assay type: ADME, organism-based
[7] = Drug concentration in overnight fasted mouse plasma at 5 mg/kg, po or 1 mg/kg, iv measured after 24 hrs; assay type: ADME, organism-based
[8] = system: Human immunodeficiency virus 1; assay: Antiviral activity against HIV1 wild type subtype B NL (4 to 3) transfected in human HEK293T cells by dual-luciferase reporter assay; assay type: functional, organism-based; conditions: Human immunodeficiency virus 1, HEK-293T
[9] = Volume of distribution at steady state in overnight fasted Sprague-Dawley rat at 5 mg/kg, po or 1 mg/kg, iv; assay type: ADME, organism-based; conditions: in vivo
[10] = AUC(0 to t) in overnight fasted cynomolgus monkey at 2 mg/kg, po or 1 mg/kg, iv; assay type: ADME, organism-based, Macaca fascicularis; parameters: dose 2 mg/kg, route po; conditions: in vivo
[11] = biological target: Cytochrome P450 2C19 (Homo sapiens, UniProt P33261); assay: Inhibition of CYP2C19 (unknown origin); assay type: ADME
Chain of Cytochrome P450 2C19 (P33261 whole entry): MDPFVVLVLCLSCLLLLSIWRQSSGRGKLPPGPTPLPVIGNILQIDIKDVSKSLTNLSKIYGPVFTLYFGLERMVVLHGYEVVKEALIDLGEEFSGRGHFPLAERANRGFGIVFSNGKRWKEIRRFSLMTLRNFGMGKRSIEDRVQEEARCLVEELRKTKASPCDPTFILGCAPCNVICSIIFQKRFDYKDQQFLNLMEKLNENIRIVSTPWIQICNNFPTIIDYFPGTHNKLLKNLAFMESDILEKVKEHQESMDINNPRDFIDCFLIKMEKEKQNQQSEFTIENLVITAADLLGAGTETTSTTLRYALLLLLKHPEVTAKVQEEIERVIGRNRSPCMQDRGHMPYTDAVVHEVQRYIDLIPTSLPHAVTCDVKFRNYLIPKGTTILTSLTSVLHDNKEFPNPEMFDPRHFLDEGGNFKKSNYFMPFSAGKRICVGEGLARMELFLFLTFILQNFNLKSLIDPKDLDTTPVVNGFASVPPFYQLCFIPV

[12] = Half life in overnight fasted mouse at 1 mg/kg, iv; assay type: ADME, organism-based; conditions: in vivo
[13] = Oral bioavailability in overnight fasted Beagle dog using spray-dried dispersion at 2 mg/kg; assay type: ADME, organism-based, Canis lupus familiaris; conditions: in vivo
[14] = Metabolic stability in mouse liver microsomes assessed as half life in presence of NADPH at 0.5 uM by LC-MS/MS analysis; assay type: ADME, Microsome
[15] = AUC(0 to t) in overnight fasted mouse at 5 mg/kg, po or 1 mg/kg, iv; assay type: ADME, organism-based; parameters: dose 5 mg/kg, route po; conditions: in vivo
[16] = Cmax in overnight fasted mouse at 5 mg/kg, po or 1 mg/kg, iv; assay type: ADME, organism-based; parameters: dose 5 mg/kg, route po; conditions: in vivo
[17] = Volume of distribution at steady state in overnight fasted mouse at 5 mg/kg, po or 1 mg/kg, iv; assay type: ADME, organism-based; conditions: in vivo
[18] = Oral bioavailability in overnight fasted Sprague-Dawley rat using spray-dried dispersion at 5 mg/kg; assay type: ADME, organism-based; conditions: in vivo
[19] = Drug concentration in overnight fasted Beagle dog plasma at 2 mg/kg, po or 1 mg/kg, iv measured after 24 hrs; assay type: ADME, organism-based, Canis lupus familiaris
[20] = biological target: Cytochrome P450 3A4 (Homo sapiens, UniProt P08684); assay: Inhibition of CYP3A4 (unknown origin); assay type: ADME
Chain of Cytochrome P450 3A4 (P08684 whole entry): as the sequence (P08684 whole entry) above

[21] = biological target: T2, Cytochrome P450 1A2 (Homo sapiens, UniProt P05177); assay: Inhibition of CYP1A2 (unknown origin); assay type: ADME
T2 sequence (P05177 whole entry): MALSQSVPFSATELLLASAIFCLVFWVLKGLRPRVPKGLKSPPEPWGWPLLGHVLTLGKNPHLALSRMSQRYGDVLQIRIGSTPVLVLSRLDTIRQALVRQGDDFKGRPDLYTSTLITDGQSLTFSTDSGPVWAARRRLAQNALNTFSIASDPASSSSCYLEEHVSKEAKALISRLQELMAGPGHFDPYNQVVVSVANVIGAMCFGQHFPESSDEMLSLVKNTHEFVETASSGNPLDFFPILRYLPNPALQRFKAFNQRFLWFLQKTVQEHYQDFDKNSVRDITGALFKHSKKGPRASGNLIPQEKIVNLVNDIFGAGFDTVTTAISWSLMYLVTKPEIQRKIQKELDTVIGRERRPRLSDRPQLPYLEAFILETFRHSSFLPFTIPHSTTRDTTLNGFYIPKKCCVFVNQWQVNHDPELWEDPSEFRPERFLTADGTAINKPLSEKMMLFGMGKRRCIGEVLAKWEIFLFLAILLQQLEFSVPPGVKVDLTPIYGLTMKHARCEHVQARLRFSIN

[22] = Metabolic stability in cynomolgus monkey liver microsomes assessed as half life in presence of NADPH at 0.5 uM by LC-MS/MS analysis; assay type: ADME, Macaca fascicularis, Microsome
[23] = system: Human immunodeficiency virus 1; assay: Antiviral activity against HIV1 virus harboring NL (4 to 3) harbouring […]/V370A mutant transfected in human HEK293T cells by luciferase reporter assay; assay type: functional, organism-based; conditions: Human immunodeficiency virus 1, HEK-293T
[24] = system: Human immunodeficiency virus 1; assay: Antiviral activity against HIV1 harbouring V362I/V370A mutant infected in human MT2 cells measured after 4 to 5 days by dual-luciferase reporter assay; assay type: functional, organism-based; conditions: Human immunodeficiency virus 1, MT2
[25] = Metabolic stability in dog liver microsomes assessed as half life in presence of NADPH at 0.5 uM by LC-MS/MS analysis; assay type: ADME, Canis lupus familiaris, Microsome
[26] = AUC in rat at 5 mg/kg, po; assay type: ADME, organism-based; parameters: dose 5 mg/kg, route po; conditions: in vivo
[27] = Half life in overnight fasted Beagle dog at 1 mg/kg, iv; assay type: ADME, organism-based, Canis lupus familiaris; conditions: in vivo
[28] = Metabolic stability in human liver microsomes assessed as half life in presence of NADPH at 0.5 uM by LC-MS/MS analysis; assay type: ADME, Microsome
[29] = biological target: Cytochrome P450 2C9 (Homo sapiens, UniProt P11712); assay: Inhibition of CYP2C9 (unknown origin); assay type: ADME
Chain of Cytochrome P450 2C9 (P11712 whole entry): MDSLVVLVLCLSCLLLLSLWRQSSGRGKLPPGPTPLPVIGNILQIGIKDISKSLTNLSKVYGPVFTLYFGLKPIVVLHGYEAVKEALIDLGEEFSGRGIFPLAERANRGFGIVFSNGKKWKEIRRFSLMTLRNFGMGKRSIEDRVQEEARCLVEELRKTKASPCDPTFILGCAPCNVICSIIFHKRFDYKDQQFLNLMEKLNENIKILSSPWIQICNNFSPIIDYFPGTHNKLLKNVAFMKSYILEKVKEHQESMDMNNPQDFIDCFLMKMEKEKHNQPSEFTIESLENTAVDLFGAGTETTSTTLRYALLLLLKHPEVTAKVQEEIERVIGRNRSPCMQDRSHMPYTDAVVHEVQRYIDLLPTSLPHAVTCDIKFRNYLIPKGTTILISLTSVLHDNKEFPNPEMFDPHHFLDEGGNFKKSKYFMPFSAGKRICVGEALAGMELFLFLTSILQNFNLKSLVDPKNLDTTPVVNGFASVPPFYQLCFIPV

[30] = Volume of distribution at steady state in overnight fasted cynomolgus monkey at 2 mg/kg, po or 1 mg/kg, iv; assay type: ADME, organism-based, Macaca fascicularis; conditions: in vivo

SMILES: C=C(C)[C@@H]1CC[C@]2(NCCN3CCS(=O)(=O)CC3)CC[C@]3(C)[C@H](CC[C@@H]4[C@@]5(C)CC=C(C6=CC[C@@](CF)(C(=O)O)CC6)C(C)(C)[C@@H]5CC[C@]43C)[C@@H]12 [FIPRAVIRIMAT]
- EC50 [1]: 3 nM
- EC50 [2]: > 5000 nM
- IC50 [3]: 3900 nM
- concentration at 24 h [4]: 68 nM
- EC50 [5]: 1.2 nM
- concentration at 24 h [6]: 21.8 nM
- concentration at 24 h [7]: 179 nM
- EC50 [8]: 1.9 nM
- Vdss [9]: 1.8 L/kg
- AUC(0-t) [10]: 7.6 µM·h
- IC50 [11]: > 13300 nM
- half-life [12]: 4.6 h
- F [13]: 117%
- half-life at 0.5 µM [14]: > 2 h
- AUC(0-t) [15]: 29.9 µM·h
- Cmax [16]: 2700 nM
- Vdss [17]: 1 L/kg
- bioavailability [18]: 40%
- concentration at 24 h [19]: 1640 nM
- IC50 [20]: > 13300 nM
- IC50 [21]: > 13300 nM
- half-life at 0.5 µM [22]: 0.467 h
- EC50 [23]: > 3000 nM
- EC50 [24]: 3 nM
- half-life at 0.5 µM [25]: > 2 h
- AUC [26]: 7.368 µM·h
- half-life [27]: 18.7 h
- half-life at 0.5 µM [28]: > 2 h
- IC50 [29]: > 13300 nM
- Vdss [30]: 0.43 L/kg
